Laboratory results: the Kinase Knowledgebase extract (Sharma et al. 2016)

Target: EGFR (human) (UniProt P00533)
Details: hl-60

Chain of EGFR (human) (P00533 whole entry, looked up): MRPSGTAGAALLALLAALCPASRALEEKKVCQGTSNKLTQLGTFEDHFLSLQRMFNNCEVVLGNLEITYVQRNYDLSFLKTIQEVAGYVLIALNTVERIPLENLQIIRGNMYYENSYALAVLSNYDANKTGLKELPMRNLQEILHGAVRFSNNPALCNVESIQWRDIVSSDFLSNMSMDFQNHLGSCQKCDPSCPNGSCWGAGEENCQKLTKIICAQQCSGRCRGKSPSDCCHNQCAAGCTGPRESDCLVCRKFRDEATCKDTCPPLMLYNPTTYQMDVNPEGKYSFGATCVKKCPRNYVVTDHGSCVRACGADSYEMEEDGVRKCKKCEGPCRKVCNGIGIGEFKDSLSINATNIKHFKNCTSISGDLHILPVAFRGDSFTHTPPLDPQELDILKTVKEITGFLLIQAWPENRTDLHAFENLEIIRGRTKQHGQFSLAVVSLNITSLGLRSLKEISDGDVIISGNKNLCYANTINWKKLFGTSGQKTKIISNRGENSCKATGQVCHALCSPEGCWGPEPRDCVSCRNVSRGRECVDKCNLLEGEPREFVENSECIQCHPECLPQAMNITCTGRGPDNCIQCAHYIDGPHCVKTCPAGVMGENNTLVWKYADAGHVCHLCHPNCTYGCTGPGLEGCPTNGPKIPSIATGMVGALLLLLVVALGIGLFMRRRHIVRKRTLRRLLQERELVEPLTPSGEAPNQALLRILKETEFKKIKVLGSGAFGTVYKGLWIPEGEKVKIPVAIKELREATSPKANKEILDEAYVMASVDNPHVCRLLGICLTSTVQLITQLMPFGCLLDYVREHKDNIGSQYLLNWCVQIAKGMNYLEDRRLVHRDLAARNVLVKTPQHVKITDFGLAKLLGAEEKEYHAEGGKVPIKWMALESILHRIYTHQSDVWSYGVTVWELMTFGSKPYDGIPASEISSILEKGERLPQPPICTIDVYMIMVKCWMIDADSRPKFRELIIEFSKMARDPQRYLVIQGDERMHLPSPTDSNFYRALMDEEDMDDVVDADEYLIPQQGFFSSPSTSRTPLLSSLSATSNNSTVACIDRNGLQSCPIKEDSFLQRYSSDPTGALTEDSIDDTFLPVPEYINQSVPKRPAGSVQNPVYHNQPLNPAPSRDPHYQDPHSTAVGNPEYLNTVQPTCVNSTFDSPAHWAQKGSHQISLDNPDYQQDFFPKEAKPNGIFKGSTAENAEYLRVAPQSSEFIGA

IC50, > 100 µM:
C#Cc1cccc(NC(=O)c2cc(NC(=O)CCCCCC(=O)NO)ccc2O)c1
O=C(CCCCCC(=O)Nc1ccc(O)c(C(=O)Nc2ccc(Cl)c(C(F)(F)F)c2)c1)NO
C#Cc1cccc(NC(=O)c2cccc(NC(=O)CCCCCC(=O)NO)c2)c1
O=C(CCCCCC(=O)Nc1ccc(O)c(C(=O)Nc2ccc(OCc3cccc(F)c3)c(Cl)c2)c1)NO
O=C(CCCCCC(=O)Nc1ccc(O)c(C(=O)Nc2ccc(F)c(Cl)c2)c1)NO
O=C(CCCCCC(=O)Nc1ccc(O)c(C(=O)Nc2cccc(C(F)(F)F)c2)c1)NO
C#Cc1cccc(NC(=O)c2cc(NC(=O)CCCCCCC(=O)NO)ccc2O)c1
O=C(CCCCCC(=O)Nc1ccc(O)c(C(=O)Nc2ccc(F)c(F)c2)c1)NO
O=C(CCCCCC(=O)Nc1ccc(O)c(C(=O)Nc2cccc(F)c2)c1)NO
O=C(CCCCCC(=O)Nc1ccc(O)c(C(=O)Nc2ccc(Cl)c(Cl)c2)c1)NO
